The target in experiment [1] is Mitogen-activated protein kinase 14 (Homo sapiens) (UniProt Q16539). As to conditions: Compound concentration 100.0 nM.
Experiment [2] addresses Sigma non-opioid intracellular receptor 1 (Homo sapiens) (UniProt Q99720). The settings on record: Compound concentration 10.0 uM.
For experiment [3], the target named is T1, GABA-A receptor; anion channel (Rattus norvegicus) (UniProt O09028+P15431+P18506+P18508+P19969+P20236+P23574+P23576+P28471+P28473+P30191+P62813+P63079+P63138+Q91ZM7+Q9ES14). As to conditions: Compound concentration 10.0 uM.
Experiment [4] addresses Histamine H4 receptor (Homo sapiens) (UniProt Q9H3N8). As to conditions: Compound concentration 10.0 uM.
Experiment [5] deals with 5-hydroxytryptamine receptor 7 (Homo sapiens) (UniProt P34969). As to conditions: Compound concentration 10.0 uM.
In experiment [6] the target is T1, GABA-A receptor; anion channel (Rattus norvegicus). The settings on record: Compound concentration 10.0 uM. This is another data set of the same source.
Experiment [7] deals with Muscarinic acetylcholine receptor M3 (Homo sapiens) (UniProt P20309). The settings on record: Compound concentration 10.0 uM.
Chain of Muscarinic acetylcholine receptor M3 (Homo sapiens) (P20309 whole entry, looked up): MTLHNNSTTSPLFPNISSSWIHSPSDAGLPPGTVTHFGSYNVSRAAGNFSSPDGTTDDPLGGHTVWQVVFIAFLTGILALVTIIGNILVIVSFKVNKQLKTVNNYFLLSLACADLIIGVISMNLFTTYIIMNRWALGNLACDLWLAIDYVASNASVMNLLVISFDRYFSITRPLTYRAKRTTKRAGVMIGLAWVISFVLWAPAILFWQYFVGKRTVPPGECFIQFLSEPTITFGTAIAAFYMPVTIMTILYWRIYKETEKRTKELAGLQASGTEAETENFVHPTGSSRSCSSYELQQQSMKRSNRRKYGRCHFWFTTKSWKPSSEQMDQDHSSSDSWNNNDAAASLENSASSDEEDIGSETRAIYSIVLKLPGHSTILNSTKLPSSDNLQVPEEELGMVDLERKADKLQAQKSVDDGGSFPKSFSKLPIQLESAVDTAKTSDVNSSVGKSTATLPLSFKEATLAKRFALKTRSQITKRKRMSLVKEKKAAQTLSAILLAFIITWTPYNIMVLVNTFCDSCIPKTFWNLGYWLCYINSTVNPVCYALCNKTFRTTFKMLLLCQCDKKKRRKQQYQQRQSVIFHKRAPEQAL
The target of experiment [8] is 5-hydroxytryptamine receptor 2A (Homo sapiens) (UniProt P28223). As to conditions: Compound concentration 10.0 uM.
Chain of 5-hydroxytryptamine receptor 2A (Homo sapiens) (P28223 whole entry): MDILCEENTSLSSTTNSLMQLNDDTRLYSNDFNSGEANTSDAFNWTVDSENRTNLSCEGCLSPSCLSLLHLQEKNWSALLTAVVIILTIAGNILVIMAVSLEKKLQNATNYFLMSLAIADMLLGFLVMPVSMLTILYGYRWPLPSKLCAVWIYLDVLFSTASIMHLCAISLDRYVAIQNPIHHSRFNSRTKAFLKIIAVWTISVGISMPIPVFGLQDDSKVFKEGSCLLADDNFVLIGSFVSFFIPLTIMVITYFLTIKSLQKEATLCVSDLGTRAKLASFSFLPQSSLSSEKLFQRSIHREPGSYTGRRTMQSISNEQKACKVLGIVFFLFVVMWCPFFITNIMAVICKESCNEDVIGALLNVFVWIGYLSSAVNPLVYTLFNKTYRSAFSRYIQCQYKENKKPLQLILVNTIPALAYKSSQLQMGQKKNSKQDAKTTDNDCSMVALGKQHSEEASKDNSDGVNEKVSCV
The target of experiment [9] is Sodium-dependent noradrenaline transporter (Homo sapiens) (UniProt P23975). The settings on record: Compound concentration 10.0 uM.
Chain of Sodium-dependent noradrenaline transporter (Homo sapiens) (P23975 whole entry): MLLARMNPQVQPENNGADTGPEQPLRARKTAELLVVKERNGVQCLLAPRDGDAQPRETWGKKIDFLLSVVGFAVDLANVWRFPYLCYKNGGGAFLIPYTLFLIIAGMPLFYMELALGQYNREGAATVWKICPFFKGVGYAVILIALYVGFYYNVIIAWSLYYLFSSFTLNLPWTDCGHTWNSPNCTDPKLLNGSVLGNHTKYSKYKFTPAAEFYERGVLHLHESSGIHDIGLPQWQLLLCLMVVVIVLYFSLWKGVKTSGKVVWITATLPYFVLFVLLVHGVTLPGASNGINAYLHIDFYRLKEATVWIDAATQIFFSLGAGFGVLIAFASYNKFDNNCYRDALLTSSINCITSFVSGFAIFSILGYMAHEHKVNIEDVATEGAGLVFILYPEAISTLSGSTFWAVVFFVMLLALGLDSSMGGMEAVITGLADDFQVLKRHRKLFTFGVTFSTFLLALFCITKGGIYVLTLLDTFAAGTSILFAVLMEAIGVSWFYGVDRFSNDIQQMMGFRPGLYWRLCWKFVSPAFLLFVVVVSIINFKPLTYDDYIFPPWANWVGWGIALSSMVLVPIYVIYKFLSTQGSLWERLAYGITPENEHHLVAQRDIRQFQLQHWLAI
The target of experiment [10] is Alpha-2B adrenergic receptor (Homo sapiens) (UniProt P18089). As to conditions: Compound concentration 10.0 uM.
Chain of Alpha-2B adrenergic receptor (Homo sapiens) (P18089 whole entry): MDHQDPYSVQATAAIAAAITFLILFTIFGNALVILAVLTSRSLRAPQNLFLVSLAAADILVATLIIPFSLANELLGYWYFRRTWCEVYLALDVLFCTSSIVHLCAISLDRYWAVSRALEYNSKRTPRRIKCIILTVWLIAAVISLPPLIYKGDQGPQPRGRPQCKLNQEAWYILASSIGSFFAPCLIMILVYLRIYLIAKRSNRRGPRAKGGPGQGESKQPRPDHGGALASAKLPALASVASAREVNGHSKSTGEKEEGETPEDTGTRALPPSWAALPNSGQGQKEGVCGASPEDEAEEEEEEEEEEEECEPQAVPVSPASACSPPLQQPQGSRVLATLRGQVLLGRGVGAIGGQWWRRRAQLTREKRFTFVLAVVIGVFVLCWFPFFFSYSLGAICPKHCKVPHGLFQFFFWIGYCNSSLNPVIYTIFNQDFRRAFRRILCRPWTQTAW
Experiment [11] addresses Histamine H1 receptor (Homo sapiens) (UniProt P35367). As to conditions: Compound concentration 10.0 uM.
Experiment [12] has as its target 5-hydroxytryptamine receptor 2C (Homo sapiens) (UniProt P28335). The settings on record: Compound concentration 10.0 uM.
Experiment [13] addresses Sodium-dependent dopamine transporter (Homo sapiens) (UniProt Q01959). The settings on record: Compound concentration 10.0 uM.
Experiment [14] has as its target Serine/threonine-protein kinase 38-like (Homo sapiens, UniProt Q9Y2H1). Description: NanoBRET (SGC-Frankfurt) (STK38L). Background: BRET reads energy transfer from a luciferase to a nearby fluorophore.

In general, inhibition refers to the relative decrease from the control value, in per cent. One may read the IC50 as the concentration at which inhibition is half-maximal.

The structures appear in SMILES notation.

Chain of Histamine H4 receptor (Homo sapiens) (Q9H3N8 whole entry): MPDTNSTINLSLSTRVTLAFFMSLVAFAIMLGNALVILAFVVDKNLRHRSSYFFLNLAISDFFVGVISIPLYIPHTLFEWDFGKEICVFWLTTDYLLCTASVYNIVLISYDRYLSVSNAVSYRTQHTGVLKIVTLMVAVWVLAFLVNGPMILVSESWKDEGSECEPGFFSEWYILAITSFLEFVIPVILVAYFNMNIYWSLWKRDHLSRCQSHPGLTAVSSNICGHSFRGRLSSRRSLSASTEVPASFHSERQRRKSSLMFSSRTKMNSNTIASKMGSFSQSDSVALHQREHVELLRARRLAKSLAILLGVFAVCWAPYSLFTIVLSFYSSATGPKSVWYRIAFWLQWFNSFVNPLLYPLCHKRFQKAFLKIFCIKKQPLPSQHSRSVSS
Chain of Serine/threonine-protein kinase 38-like (Q9Y2H1 whole entry): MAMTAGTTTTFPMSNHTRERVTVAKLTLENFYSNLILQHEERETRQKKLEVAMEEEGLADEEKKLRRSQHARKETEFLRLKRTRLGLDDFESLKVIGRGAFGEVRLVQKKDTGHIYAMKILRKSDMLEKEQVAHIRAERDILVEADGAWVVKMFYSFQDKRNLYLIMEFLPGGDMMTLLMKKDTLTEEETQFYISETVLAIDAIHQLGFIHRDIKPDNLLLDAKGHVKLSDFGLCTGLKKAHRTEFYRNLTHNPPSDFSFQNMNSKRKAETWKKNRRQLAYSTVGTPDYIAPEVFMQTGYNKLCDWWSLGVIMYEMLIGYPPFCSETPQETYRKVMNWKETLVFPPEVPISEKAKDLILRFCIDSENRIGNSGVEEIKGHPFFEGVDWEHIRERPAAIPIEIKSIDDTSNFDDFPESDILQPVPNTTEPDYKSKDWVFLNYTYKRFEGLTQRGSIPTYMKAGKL
Chain of Sodium-dependent dopamine transporter (Homo sapiens) (Q01959 whole entry): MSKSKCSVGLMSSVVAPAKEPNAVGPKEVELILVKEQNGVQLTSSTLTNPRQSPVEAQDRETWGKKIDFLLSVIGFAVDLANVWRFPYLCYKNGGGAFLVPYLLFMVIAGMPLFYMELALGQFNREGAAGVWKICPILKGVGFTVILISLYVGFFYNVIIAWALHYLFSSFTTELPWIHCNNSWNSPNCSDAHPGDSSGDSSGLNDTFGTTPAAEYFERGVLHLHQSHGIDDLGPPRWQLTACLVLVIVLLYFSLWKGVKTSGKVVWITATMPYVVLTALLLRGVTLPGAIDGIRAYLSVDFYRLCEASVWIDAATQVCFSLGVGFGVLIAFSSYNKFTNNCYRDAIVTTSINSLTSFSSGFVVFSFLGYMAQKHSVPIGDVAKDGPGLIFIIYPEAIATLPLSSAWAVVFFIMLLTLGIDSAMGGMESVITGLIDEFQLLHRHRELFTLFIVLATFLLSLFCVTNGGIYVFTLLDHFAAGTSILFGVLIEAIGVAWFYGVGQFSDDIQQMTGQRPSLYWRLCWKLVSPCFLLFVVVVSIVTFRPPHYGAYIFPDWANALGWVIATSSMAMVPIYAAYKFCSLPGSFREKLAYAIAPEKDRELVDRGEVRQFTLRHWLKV
Chain of Sigma non-opioid intracellular receptor 1 (Homo sapiens) (Q99720 whole entry): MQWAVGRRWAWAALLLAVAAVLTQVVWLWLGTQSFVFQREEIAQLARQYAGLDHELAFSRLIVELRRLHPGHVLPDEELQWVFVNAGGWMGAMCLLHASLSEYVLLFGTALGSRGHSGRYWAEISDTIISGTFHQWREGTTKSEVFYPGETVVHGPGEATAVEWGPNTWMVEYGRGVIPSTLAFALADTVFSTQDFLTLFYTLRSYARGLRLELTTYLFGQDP
Chain of Histamine H1 receptor (Homo sapiens) (P35367 whole entry): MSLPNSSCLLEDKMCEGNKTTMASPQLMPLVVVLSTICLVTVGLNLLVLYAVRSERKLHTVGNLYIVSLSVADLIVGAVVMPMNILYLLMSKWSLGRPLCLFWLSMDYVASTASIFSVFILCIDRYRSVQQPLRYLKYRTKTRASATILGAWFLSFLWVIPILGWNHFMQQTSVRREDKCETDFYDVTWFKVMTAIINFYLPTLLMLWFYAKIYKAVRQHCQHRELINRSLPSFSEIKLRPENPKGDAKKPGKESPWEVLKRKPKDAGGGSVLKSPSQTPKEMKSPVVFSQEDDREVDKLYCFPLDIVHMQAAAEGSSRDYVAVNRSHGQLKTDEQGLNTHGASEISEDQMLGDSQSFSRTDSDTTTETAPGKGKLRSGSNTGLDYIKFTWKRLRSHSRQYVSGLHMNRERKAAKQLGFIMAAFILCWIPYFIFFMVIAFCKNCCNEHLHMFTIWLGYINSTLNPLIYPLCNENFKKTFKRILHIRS
Chain of Mitogen-activated protein kinase 14 (Homo sapiens) (Q16539 whole entry): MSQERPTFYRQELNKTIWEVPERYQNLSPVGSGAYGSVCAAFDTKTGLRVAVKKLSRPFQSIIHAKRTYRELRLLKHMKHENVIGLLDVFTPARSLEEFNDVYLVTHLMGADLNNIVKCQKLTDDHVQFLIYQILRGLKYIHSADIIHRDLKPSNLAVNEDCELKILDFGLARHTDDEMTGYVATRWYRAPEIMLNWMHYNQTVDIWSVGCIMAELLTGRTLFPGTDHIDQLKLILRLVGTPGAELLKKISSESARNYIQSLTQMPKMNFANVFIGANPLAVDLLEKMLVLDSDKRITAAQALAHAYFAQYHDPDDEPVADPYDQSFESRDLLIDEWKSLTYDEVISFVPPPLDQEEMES

On to `CS(=O)(=O)N1CCCC(NC(=O)[C@H](CCC2CCCCC2)NC(=O)c2ccc(CNc3ncnc4c3nnn4-c3ccccc3)cc2)C1` (some centres undefined) [SR-301], for which, in experiment [1], the residual activity is 100%.

Consider `CS(=O)(=O)N1CCCC(NC(=O)[C@H](CCC2CCCCC2)NC(=O)c2ccc(CNC(=O)c3cnc4ccccn34)cc2)C1` (some centres undefined) [SR-302], for which the inhibition was 32% in experiment [2]; 31.9% in experiment [3]; -7.56% in [4]; 11.3% in experiment [5]; 15.8% in experiment [6]; 20.6% in [7]. For the same molecule, the inhibition in experiment [8] was 3.03%; in [9], 3%; in [10], 13.5%; in experiment [11], 3.62%; in experiment [12], 8.24%; in experiment [13] it was 11.5%. This molecule returned an IC50 in [14] greater than 25 µM.

For the origin of these results see ChEMBL document CHEMBL4507324 (2021).
